Measured values taken from PubChem BioAssay (NCI).
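Values below derive from 48-hour exposures of cells grown in 96-well plates, with endpoints linearly interpolated between the two concentrations bracketing the appropriate inhibition level. The concentration for 50% growth inhibition is given as GI50. TGI: concentration producing complete growth inhibition.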

Assays:
[1] = tested on: SN12K1 renal; assay: NCI tumour cell line growth inhibition, 48 h
[2] = tested on: P388/ADR leukemia; assay: NCI tumour cell line growth inhibition, 48 h

## COc1cc([C@@H]2c3cc4c(cc3[C@@H](OC3OC5COC(C)OC5C(O)C3O)[C@H]3COC(=O)[C@H]23)OCO4)cc(OC)c1O (some centres undefined)
[1]
  TGI: 66.6 µM
[2]
  TGI: 411 µM

## C=C1C(C)C2C(Cc3ccccc3)NC(=O)C23C(OC(C)=O)C=CC(C)(O)C(=O)C(C)C/C=C/C3C1O (centres undefined)
[1]
  TGI: 58.3 µM
[2]
  TGI: 90.3 µM

## CC1OC(O[C@@H]2C=C3CC[C@@H]4[C@H](CC[C@]5(C)[C@@H](c6ccc(=O)oc6)CC[C@]45O)[C@@]3(C)CC2)C(O)C(O)C1O (some centres undefined)
[1]
  GI50: 0.000941 µM
  TGI: 0.003 µM
[2]
  TGI: 159 µM

## COc1cc(C2c3cc4c(cc3[C@@H](Nc3ccc(F)cc3)C3COC(=O)[C@H]23)OCO4)cc(OC)c1O (some centres undefined)
[1]
  TGI: 12.2 µM
[2]
  TGI: 1.63 µM
